Measurements reported in patent publication US7314878B2, “Piperazine benzothiazoles as agents for the treatment of cerebral ischemic disorders or CNS disorders” (Laboratories Serono SA, priority 2002, dated 2008).
Where two headings read alike, the source gives them in different places.

Assays:
[1] = test system: neuronal death in CA1/CA2 subfields of the hippocampus; assay: Global ischemia in gerbils (bilateral carotid occlusion); format: in vivo; conditions: 40 mg per kg ip, 15 min, 24 h and 48 h after reperfusion; gerbil
From the text: b) Global Ischemia in Gerbils
The ability of the JNK inhibitors described in formula I to protect cell death during a stroke event may be assessed using the following protocol:
The gerbil bilateral carotid occlusion is a well-described animal model of acute ischemic stroke and involves relatively easy surgical techniques.
The neuronal degeneration in the hippocampus develops over several days and is often referred as “delayed neuronal death”. In addition, the neurodegeneration observed histologically is obvious and easily quantified (11). Furthermore, the histopathology seen in the gerbil is similar to that observed in the hippocampal CA1 region of the human brain following a cardiac arrest. Behavior observations, such as memory tests, could even be performed in the case of gerbils. This kind of tests for appreciation of the degree of recovery is not easily manageable in other models such as in rat whose learning abilities are much poorer (12).
The neuroprotective effect according to formula I to protect may be assessed using-the gerbil global ischemia model and such a protocol: […]

[2] = Assessment of the BBB passage: brain and plasma sampling; format: in vivo, Sprague Dawley rats; conditions: rat, i.v. 10 mg/kg; for concentration at 0.25 h / concentration at 0.5 h / concentration at 1 h: pooled n = 2
From the text: c) Assessment of the BBB Passage: Brain and Plasma Sampling
The compounds of the present invention are useful in the treatment and/or prophylaxis of cerebral ischemic disorders or CNS disorders. Specifically, the compounds of the present invention show a good capacity to cross the blood-brain barrier (EBB). The BBB passing capacity of the compounds according to formulae I or II may be assessed using the below protocols. The objective of this assay is to quantify the amount of the test compounds according to formulae I or II in the brain of rats following i.v. administration.
Six male Crl:CD(SD)Br Sprague Dawley rats (about 8 weeks old and having a weight of about 300 g) were divided into the 3 following groups:
2 animals for i.v. administration (10 mg/kg of test compound of formula I in 0.9% NaCl for injection). The test compound is administered by single dose (dose regimen). The sampling is performed at 0.25 h after sacrifice.
2 animals for i.v. administration (10 mg/kg of test compound of formula I in 0.9% NaCl for injection). The test compound is administered by single dose (dose regimen). The sampling is performed at 0.5 h after sacrifice.
2 animals for i.v. administration (10 mg/kg of test compound of formula I in 0.9% NaCl for injection). The test compound is administered by single dose (dose regimen). The sampling is performed at 1 h after sacrifice.
At each scheduled killing time, the animals of the corresponding group are deeply anaesthetised with diethyl ether. The blood for the corresponding blood samples is collected into heparinised tubes and centrifuged to remove the blood cells thus providing plasma. Plasma samples obtained at each sampling time (i.e. at t=0.25 h, 0.5 h, 1 h) from the rats of each group after administration of the test compound of formula (I) are pooled in order to obtain 1 pooled sample per sampling time per group. Rats are then sacrificed by exsanguination.
For the-brain sampling, the whole brain (cerebrum and cerebellum) of the sacrificed animals is removed. Brain from two animals per sampling time (i.e. at t=0.25 h, 0.5 h, 1 h after administration) are pooled in order to obtain one pooled sample per sampling time. Each pooled sample is homogenized in a solvent mixture (acetonitrile/methanol/dimethyl-sulfoxide, 50:48:2 by volume) centrifuged and the supernatant analyzed for the test compound.
Concentrations in plasma samples and brain homogenates are quantified according to an analytical HPLC-MS/MS method, properly developed for the compound.
The test compound used in this assay is the one set out in Example 1 (i.e. 1,3-benzothiazol-2-yl[2-({4-[(4-methylpiperazin-1-yl)methyl]-benzyl}oxy)pyrimidin-4-yl]acetonitrile.

Compound: CN1CCN(Cc2ccc(COc3nccc(C(C#N)c4nc5ccccc5s4)n3)cc2)CC1 (centres unmarked) [Example 1, 1,3-benzothiazol-2-yl[2-({4-[(4-methylpiperazin-1-yl)methyl]-benzyl}-oxy)pyrimidin-4yl]acetonitrile]
- inhibition of neuronal death [1]: about 60%
- concentration at 0.25 h ([2]; male, Crl:CD(SD)Br Sprague Dawley, brain, iv, 0.25 h, read-out: Brain concentration): 919 ng/g
- concentration at 0.5 h ([2]; male, Crl:CD(SD)Br Sprague Dawley, brain, iv, 0.5 h, read-out: Brain concentration): 657 ng/g
- concentration at 1 h ([2]; male, Crl:CD(SD)Br Sprague Dawley, brain, iv, 1 h, read-out: Brain concentration): 679 ng/g
- Kp at 0.25 h ([2]; male, Crl:CD(SD)Br Sprague Dawley, brain/plasma, iv, 0.25 h, read-out: Brain/Plasma ratio): 0.32
- Kp at 0.5 h ([2]; male, Crl:CD(SD)Br Sprague Dawley, brain/plasma, iv, 0.5 h, read-out: Brain/Plasma ratio): 0.3
- Kp at 1 h ([2]; male, Crl:CD(SD)Br Sprague Dawley, brain/plasma, iv, 1 h, read-out: Brain/Plasma ratio): 0.34
- concentration at 0.25 h ([2]; male, Crl:CD(SD)Br Sprague Dawley, plasma, iv, 0.25 h, read-out: Plasma concentration): 2840 ng/mL
- concentration at 0.5 h ([2]; male, Crl:CD(SD)Br Sprague Dawley, plasma, iv, 0.5 h, read-out: Plasma concentration): 2160 ng/mL
- concentration at 1 h ([2]; male, Crl:CD(SD)Br Sprague Dawley, plasma, iv, 1 h, read-out: Plasma concentration): 1980 ng/mL
- passage into the brain ([2]; 0.25-1 h): considerable and sustained passage of the test compound into the brain
